Where a SMILES comes first, the peptide text is derived from it. Bridges are numbered along the chain shown (N, C = ends).
Tests used:
rat α7 nAChRs = molecular target: T1, rat α7 nAChRs (Rattus norvegicus, UniProt Q05941); assay: cell-based; type: cell-based
T1 construct: expressed in transfected cells; host or cells: Xenopus laevis oocytes injected with cRNA; plasmids from J. Michael McIntosh (University of Utah)

rat α6/α3β4 nAChRs = molecular target: T2, rat α6/α3β4 nAChRs (Rattus norvegicus, UniProt P04757+P12392+P43143); type: cell-based
T2 construct: expressed in transfected cells; host or cells: Xenopus laevis oocytes injected with cRNA; plasmids from J. Michael McIntosh (University of Utah)

rat α3β2 nAChR = molecular target: T3, rat α3β2 nAChR (Rattus norvegicus, UniProt P04757+P12390); assay: cell-based
T3 construct: expressed in transfected cells; host or cells: Xenopus laevis oocytes injected with cRNA; plasmids from J. Michael McIntosh (University of Utah)
T3 sequence (P04757 26-499 limits assumed): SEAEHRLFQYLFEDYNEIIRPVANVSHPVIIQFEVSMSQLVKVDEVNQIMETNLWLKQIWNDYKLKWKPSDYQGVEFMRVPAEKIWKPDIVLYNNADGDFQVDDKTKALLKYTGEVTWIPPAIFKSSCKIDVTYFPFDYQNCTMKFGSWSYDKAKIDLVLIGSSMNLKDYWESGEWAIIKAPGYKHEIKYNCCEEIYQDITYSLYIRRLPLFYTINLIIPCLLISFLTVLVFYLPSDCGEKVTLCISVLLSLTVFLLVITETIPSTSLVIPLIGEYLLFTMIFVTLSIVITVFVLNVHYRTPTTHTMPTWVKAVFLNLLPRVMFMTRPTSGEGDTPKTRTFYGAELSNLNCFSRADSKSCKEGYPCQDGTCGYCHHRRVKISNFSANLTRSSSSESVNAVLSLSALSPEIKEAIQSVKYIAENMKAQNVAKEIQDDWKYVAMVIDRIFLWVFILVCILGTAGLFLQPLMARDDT
T3 sequence (P12390 25-500 limits assumed): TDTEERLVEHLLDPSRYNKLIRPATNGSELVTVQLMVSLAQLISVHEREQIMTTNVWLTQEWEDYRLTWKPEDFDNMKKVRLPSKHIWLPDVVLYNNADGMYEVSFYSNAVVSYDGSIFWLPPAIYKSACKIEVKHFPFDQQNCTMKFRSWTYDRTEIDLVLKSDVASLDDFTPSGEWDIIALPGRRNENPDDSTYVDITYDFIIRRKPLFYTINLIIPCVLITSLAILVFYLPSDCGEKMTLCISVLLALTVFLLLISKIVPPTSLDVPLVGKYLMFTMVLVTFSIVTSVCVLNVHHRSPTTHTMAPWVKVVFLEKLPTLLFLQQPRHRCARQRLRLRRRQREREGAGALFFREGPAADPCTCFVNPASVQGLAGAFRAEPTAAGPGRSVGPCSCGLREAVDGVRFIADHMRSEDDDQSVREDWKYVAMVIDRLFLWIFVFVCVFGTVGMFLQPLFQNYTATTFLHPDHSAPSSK

T1 sequence (Q05941 23-502): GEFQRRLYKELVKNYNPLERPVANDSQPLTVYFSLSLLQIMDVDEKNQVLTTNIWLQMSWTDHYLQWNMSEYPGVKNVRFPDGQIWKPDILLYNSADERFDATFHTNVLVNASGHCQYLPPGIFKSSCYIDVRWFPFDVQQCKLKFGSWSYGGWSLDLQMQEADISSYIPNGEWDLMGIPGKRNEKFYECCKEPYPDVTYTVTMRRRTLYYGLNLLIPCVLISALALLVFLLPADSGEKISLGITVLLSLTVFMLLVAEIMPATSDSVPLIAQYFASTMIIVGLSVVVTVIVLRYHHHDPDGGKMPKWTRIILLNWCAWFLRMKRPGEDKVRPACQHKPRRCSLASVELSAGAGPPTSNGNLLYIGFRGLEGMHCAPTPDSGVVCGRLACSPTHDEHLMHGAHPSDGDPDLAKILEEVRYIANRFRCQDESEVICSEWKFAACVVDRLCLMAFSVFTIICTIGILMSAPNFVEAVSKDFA
T2 sequence (P43143+P04757 fused with the stated changes): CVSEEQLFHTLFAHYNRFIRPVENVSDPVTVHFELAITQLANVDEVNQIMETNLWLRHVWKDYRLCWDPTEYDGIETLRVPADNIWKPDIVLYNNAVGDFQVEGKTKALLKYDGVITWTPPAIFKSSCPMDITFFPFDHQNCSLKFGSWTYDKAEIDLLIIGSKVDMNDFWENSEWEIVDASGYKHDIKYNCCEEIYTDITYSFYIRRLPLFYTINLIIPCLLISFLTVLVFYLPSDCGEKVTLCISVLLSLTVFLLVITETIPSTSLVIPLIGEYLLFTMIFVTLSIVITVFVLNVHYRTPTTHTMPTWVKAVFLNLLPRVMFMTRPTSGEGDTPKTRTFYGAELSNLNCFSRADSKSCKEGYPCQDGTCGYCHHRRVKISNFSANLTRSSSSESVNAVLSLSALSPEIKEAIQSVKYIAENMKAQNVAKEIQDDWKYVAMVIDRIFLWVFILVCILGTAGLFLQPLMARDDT
T2 sequence (P12392 21-495): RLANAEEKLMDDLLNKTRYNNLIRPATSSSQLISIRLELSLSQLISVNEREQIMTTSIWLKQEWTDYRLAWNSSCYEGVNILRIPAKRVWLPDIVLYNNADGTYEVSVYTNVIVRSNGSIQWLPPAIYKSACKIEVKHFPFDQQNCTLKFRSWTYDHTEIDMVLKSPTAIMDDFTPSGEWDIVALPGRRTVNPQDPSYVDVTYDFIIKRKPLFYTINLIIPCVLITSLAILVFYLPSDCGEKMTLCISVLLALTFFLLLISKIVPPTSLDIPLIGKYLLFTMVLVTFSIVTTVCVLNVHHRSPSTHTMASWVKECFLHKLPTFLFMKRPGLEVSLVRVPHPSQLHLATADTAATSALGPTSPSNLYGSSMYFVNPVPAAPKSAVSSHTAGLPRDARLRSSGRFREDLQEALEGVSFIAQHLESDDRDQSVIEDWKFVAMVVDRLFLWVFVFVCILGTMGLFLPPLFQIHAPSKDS

C[C@@H]1NC(=O)[C@@H]2CSSC[C@H](NC(=O)CN)C(=O)N[C@@H](CSSC[C@@H](C(N)=O)NC(=O)[C@H](Cc3c[nH]cn3)NC(=O)[C@H](CCC(=O)O)NC(=O)[C@H](Cc3c[nH]cn3)NC1=O)C(=O)N[C@@H](CO)C(=O)N[C@@H](CC(N)=O)C(=O)N1CCC[C@H]1C(=O)N1CCC[C@H]1C(=O)N2 [[Q1G, ΔR14]LvIB] (H-GCCSNPPCAHEHC-NH2; disulfide 2-8, 3-13)
Hill Slope (rat α7 nAChRs): 0.99 (0.8–1.19)
inhibition rate of ACh-evoked current (rat α7 nAChRs): 98 ± 0.12%
time to ~90% current restoration after block (recovery/washout) (rat α7 nAChRs): ≤ 17 min
inhibition rate (rat α6/α3β4 nAChRs): 88 ± 5%
inhibition rate (rat α3β2 nAChR): 97 ± 2%

— PMC11122421 (Marine Drugs, 2024)
